{"source": "patent US20070020744A1", "about": "“Enzyme compositions that enhance the flavor of food and beverages” (Amano Enzyme USA Co., Ltd, priority 2005, published 2007)", "key": {"Protease M": {"system": "Protease M", "test": "Relative activity on nitrophenyl-sugar substrates: Protease M", "assay_type": "biochemical, Aspergillus oryzae", "settings": "100 units arbitrarily chosen for the substrate on which Protease M exhibited the most activity", "description": "(§1) The relative activity of Protease M and β-glycosidase on different sugar substrates was assessed. A panel of substrates comprising a nitrophenyl group conjugated to different sugars was used in the study."}, "β-glycosidase": {"system": "β-glycosidase", "test": "Relative activity on nitrophenyl-sugar substrates: β-glycosidase", "assay_type": "biochemical, Penicillium multicolor", "settings": "100 units arbitrarily chosen for the substrate on which β-glycosidase exhibited the most activity", "description": "as §1"}}}
{"smiles": "O=[N+]([O-])c1ccc(O[C@H]2O[C@H](CO)[C@H](O)[C@H](O)[C@H]2O)cc1", "note": "[4-Nitrophenyl α-D-galactopyranoside]", "values": [{"measurement": "relative activity of Protease M for the substrate", "setting": "Protease M", "value": 6, "unit": "activity units"}, {"measurement": "relative activity of β-glycosidase for the substrate", "setting": "β-glycosidase", "value": 100, "unit": "activity units"}]}
{"smiles": "O=[N+]([O-])c1ccc(O[C@H]2O[C@H](CO)[C@@H](O)[C@H](O)[C@H]2O)cc1", "note": "[4-Nitrophenyl α-D-glucopyranoside]", "values": [{"measurement": "relative activity of Protease M for the substrate", "setting": "Protease M", "value": 42, "unit": "activity units"}, {"measurement": "relative activity of β-glycosidase for the substrate", "setting": "β-glycosidase", "value": 19, "unit": "activity units"}]}
{"smiles": "O=[N+]([O-])c1ccc(O[C@H]2O[C@H](CO)[C@@H](O)[C@H](O)[C@@H]2O)cc1", "note": "[4-Nitrophenyl α-D-mannopyranoside]", "values": [{"measurement": "relative activity of Protease M for the substrate", "setting": "Protease M", "value": 4, "unit": "activity units"}, {"measurement": "relative activity of β-glycosidase for the substrate", "setting": "β-glycosidase", "value": 19, "unit": "activity units"}]}
{"smiles": "O=[N+]([O-])c1ccc(O[C@@H]2OC[C@H](O)[C@H](O)[C@H]2O)cc1", "note": "[4-Nitrophenyl α-L-arabinopyranoside]", "values": [{"measurement": "relative activity of Protease M for the substrate", "setting": "Protease M", "value": 29, "unit": "activity units"}, {"measurement": "relative activity of β-glycosidase for the substrate", "setting": "β-glycosidase", "value": 60, "unit": "activity units"}]}
{"smiles": "O=[N+]([O-])c1ccc(O[C@@H]2O[C@H](CO)[C@@H](O[C@@H]3O[C@H](CO)[C@@H](O)[C@H](O)[C@H]3O)[C@H](O)[C@H]2O)cc1", "note": "[4-Nitrophenyl β-D-cellobioside]", "values": [{"measurement": "relative activity of Protease M for the substrate", "setting": "Protease M", "value": 68, "unit": "activity units"}, {"measurement": "relative activity of β-glycosidase for the substrate", "setting": "β-glycosidase", "value": 55, "unit": "activity units"}]}
{"smiles": "O=[N+]([O-])c1ccc(O[C@@H]2O[C@H](CO)[C@H](O)[C@H](O)[C@H]2O)cc1", "note": "[4-Nitrophenyl β-D-galactopyranoside]", "values": [{"measurement": "relative activity of Protease M for the substrate", "setting": "Protease M", "value": 100, "unit": "activity units"}, {"measurement": "relative activity of β-glycosidase for the substrate", "setting": "β-glycosidase", "value": 85, "unit": "activity units"}]}
{"smiles": "O=C(O)[C@H]1O[C@@H](Oc2ccc([N+](=O)[O-])cc2)[C@H](O)[C@@H](O)[C@@H]1O", "note": "[4-Nitrophenyl β-D-glucuronide]", "values": [{"measurement": "relative activity of Protease M for the substrate", "setting": "Protease M", "value": 4, "unit": "activity units"}, {"measurement": "relative activity of β-glycosidase for the substrate", "setting": "β-glycosidase", "value": 12, "unit": "activity units"}]}
{"smiles": "O=[N+]([O-])c1ccc(O[C@@H]2O[C@H](CO)[C@@H](O[C@H]3O[C@H](CO)[C@@H](O)[C@H](O)[C@H]3O)[C@H](O)[C@H]2O)cc1", "note": "[4-Nitrophenyl β-D-maltoside]", "values": [{"measurement": "relative activity of Protease M for the substrate", "setting": "Protease M", "value": 63, "unit": "activity units"}, {"measurement": "relative activity of β-glycosidase for the substrate", "setting": "β-glycosidase", "value": 57, "unit": "activity units"}]}
{"smiles": "O=[N+]([O-])c1ccc(O[C@@H]2O[C@H](CO)[C@@H](O)[C@H](O)[C@@H]2O)cc1", "note": "[4-Nitrophenyl β-D-mannopyranoside]", "values": [{"measurement": "relative activity of Protease M for the substrate", "setting": "Protease M", "value": 10, "unit": "activity units"}, {"measurement": "relative activity of β-glycosidase for the substrate", "setting": "β-glycosidase", "value": 12, "unit": "activity units"}]}
